Patent US20210130473A1, “TGFßR1 INHIBITOR-ASGR ANTIBODY CONJUGATES AND USES THEREOF” (Silverback Therapeutics, Inc., priority 2019, published 2021)
pIC50: −log10 of the molar value.

How the values were obtained:
ALK5 = target: T1, ALK5 (Homo sapiens, UniProt P36897); assay: ALK5 enzyme inhibition assay (casein substrate, 10 uM ATP, 33P-ATP, filter-binding; Reaction Biology Corp); type: biochemical
T1 construct: purchased Reaction Biology Corp (Malvern, Pa.)
T1 sequence (P36897 34-503): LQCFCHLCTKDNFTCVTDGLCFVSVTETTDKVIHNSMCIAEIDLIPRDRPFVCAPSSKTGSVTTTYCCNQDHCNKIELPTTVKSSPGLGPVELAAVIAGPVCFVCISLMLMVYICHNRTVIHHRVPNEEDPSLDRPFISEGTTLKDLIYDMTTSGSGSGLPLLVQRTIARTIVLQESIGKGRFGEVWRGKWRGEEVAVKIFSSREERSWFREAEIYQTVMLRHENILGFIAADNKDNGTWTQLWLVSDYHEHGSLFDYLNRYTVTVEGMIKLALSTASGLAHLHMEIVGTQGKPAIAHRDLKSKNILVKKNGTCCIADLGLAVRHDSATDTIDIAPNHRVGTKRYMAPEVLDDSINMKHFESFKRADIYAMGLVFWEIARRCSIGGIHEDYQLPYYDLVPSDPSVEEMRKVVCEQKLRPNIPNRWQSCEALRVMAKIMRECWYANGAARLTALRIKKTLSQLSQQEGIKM
Description: ALK5 enzyme inhibition assays were performed by Reaction Biology Corp (Malvern, Pa.). 1 mg/mL of peptide substrate (casein) and 10 uM ATP were prepared in a mixture of fresh reaction buffer. The kinase was delivered into the substrate solution which was gently mixed. Compounds in 100% DMSO were added to the kinase reaction mixture by Acoustic technology (Echo550; nanoliter range) and the mixture was incubated for 20 min at room temperature. ^33P-ATP (Specific activity 10 uCi/uL) was added into the reaction mixture to initiate the reaction and the reaction mixture was incubated for 2 hours at room temperature. Radioactivity was detected by filter-binding method and kinase activity data were expressed as the percent remaining kinase activity in test samples compared to vehicle (dimethyl sulfoxide) reactions. IC50 values and curve fits were obtained using Prism (GraphPad Software).

[1] = tested on: TGFβ/SMAD Signaling Pathway SBE reporter cell line; assay: TGFb reporter assay in HEK293 SBE-LUC reporter cells (luciferase); type: cell-based; conditions: Homo sapiens, key of the table says IC50, read-out: EC50 (the source's name)
Description: TGFβ/SMAD Signaling Pathway SBE reporter cell line was obtained from BPS Bioscience. Cells are passed, expanded, and stored in liquid nitrogen as per the supplier's instructions with the exception that growth media is changed to DMEM-C with Geneticin (DMEM supplemented with 10% fetal bovine serum, 1×NEAA, 1 mM Pyruvate, 2 mM glutamine, 50 μg/mL penicillin, 50 U/mL streptomycin and 400 μg/mL of Geneticin). The assay media is MEM supplemented with 0.5% fetal bovine serum, 1×NEAA, 1 mM Pyruvate, 50 μg/mL penicillin and 50 U/mL streptomycin.
Compounds are assayed to measure their activity as ALK5 inhibitors.
The HEK293 SBE-LUC reporter cells from Example 15 were grown in DMEM-C with Geneticin (DMEM supplemented with […], 1×NEAA, 1 mM Pyruvate, 2 mM glutamine, 50 μg/mL penicillin, 50 U/mL streptomycin and 400 ug/mL of Geneticin). The assay media was MEM supplemented with 0.5% fetal bovine serum, 1×NEAA, 1 mM Pyruvate, 50 μg/mL penicillin and 50 U/mL streptomycin.
The HEK293 SBE-LUC reporter cells were harvested from the tissue culture flasks by incubation in small quantity of Versene at room temperature for three to five minutes after the media in the flask is removed and cells rinsed with PBS. Cells were counted and diluted in the assay media at ˜0.8×10^6 cells/mL then 50 uL/well were added to 96-well assay plate. Test samples (at desired concentrations diluted in assay media) were added to assay plate containing the 50 uL/well of cells (or media only), 50 uL per well, and incubated for 5-6 hours at 37° C. in a 5% CO2 humidified incubator. After that time, 15 uL of TGFb diluted to 12.5 ng/mL in the assay media was added to the plate. Controls included TGFb titration (from 25 to 0 ng/mL) without inhibitors, and media only (without cells, inhibitor or TGFb). Plates were incubated at 37° C. in a 5% CO2 humidified incubator for 18h. Luciferase substrate solution was subsequently added at 75 uL per well, incubated in dark with shaking at room temperature for 10 min, and luminescence was measured using a luminometer.

Cc1cccc(-c2nc(CNCc3ccccc3)[nH]c2-c2ccc3ncnn3c2)n1 [Compound 1, 1-(5-([1,2,4]triazolo[1,5-a]pyridin-6-yl)-4-(6-methylpyridin-2-yl)-1H-imidazol-2-yl)-N-benzylmethanamine]
pIC50 (ALK5; Table 11): 6.00 to 7.00 | pIC50 [1]: 8.00 to 10.00

Cc1cccc(-c2nc(CNc3ccc4c(c3)CNCC4)[nH]c2-c2ccc3ncnn3c2)n1 [Compound 1.1]
pIC50 [1]: 6.00 to 7.00

Cc1cccc(-c2nc(CNc3ccc4c(c3)CCNC4)[nH]c2-c2ccc3ncnn3c2)n1 [Compound 1.2]
pIC50 [1]: 6.00 to 7.00

Cc1cccc(-c2nc(CNc3cccc4c3CNCC4)[nH]c2-c2ccc3ncnn3c2)n1 [Compound 1.3]
pIC50 [1]: 6.00 to 7.00

Cc1cccc(-c2nc(CNc3cccc4c3CCNC4)[nH]c2-c2ccc3ncnn3c2)n1 [Compound 1.4]
pIC50 [1]: 6.00 to 7.00

Cc1cccc(-c2nc(CNc3ccc4c(c3)CCC4N)[nH]c2-c2ccc3ncnn3c2)n1 (stereo not drawn) [Compound 1.5]
pIC50 (ALK5; Table 12): 6.00 to 7.00 | pIC50 [1]: 6.00 to 7.00

Cc1cccc(-c2nc(CNc3cccc4c3CCC4N)[nH]c2-c2ccc3ncnn3c2)n1 (stereo not drawn) [Compound 1.6]
pIC50 (ALK5; Table 12): 6.00 to 7.00 | pIC50 [1]: 6.00 to 7.00

Cc1cccc(-c2nc(CNC3CC3)[nH]c2-c2ccc3ncnn3c2)n1 [Compound 1.7]
pIC50 [1]: 6.00 to 7.00

Cc1cccc(-c2nc(CNCC3CC3)[nH]c2-c2ccc3ncnn3c2)n1 [Compound 1.8]
pIC50 [1]: 6.00 to 7.00

Cc1cccc(-c2nc(CNC34CC(C3)C4)[nH]c2-c2ccc3ncnn3c2)n1 [Compound 1.9]
pIC50 (ALK5; Table 12): 5.00 to 6.00 | pIC50 [1]: 7.00 to 8.00

Cc1cccc(-c2nc(CNC3CCC3)[nH]c2-c2ccc3ncnn3c2)n1 [Compound 1.10]
pIC50 [1]: 6.00 to 7.00

Cc1cccc(-c2nc(CNC3CCCC3)[nH]c2-c2ccc3ncnn3c2)n1 [Compound 1.11]
pIC50 [1]: 7.00 to 8.00

Cc1cccc(-c2nc(CNC3CCCCC3)[nH]c2-c2ccc3ncnn3c2)n1 [Compound 1.12]
pIC50 [1]: 7.00 to 8.00

Cc1cccc(-c2nc(CNC3CCCCCC3)[nH]c2-c2ccc3ncnn3c2)n1 [Compound 1.13]
pIC50 [1]: 7.00 to 8.00

Cc1cccc(-c2nc(CNC3CCOCC3)[nH]c2-c2ccc3ncnn3c2)n1 [Compound 1.14]
pIC50 [1]: 7.00 to 8.00

Cc1cccc(-c2nc(CNC3CCCOC3)[nH]c2-c2ccc3ncnn3c2)n1 (stereo not drawn) [Compound 1.15]
pIC50 (ALK5; Table 12): 6.00 to 7.00 | pIC50 [1]: 7.00 to 8.00

Cc1cccc(-c2nc(CNC3CCCCC3C)[nH]c2-c2ccc3ncnn3c2)n1 (stereo not drawn) [Compound 1.16]
pIC50 (ALK5; Table 12): 6.00 to 7.00 | pIC50 [1]: 7.00 to 8.00

Cc1cccc(-c2nc(CNc3cncc(CN)c3)[nH]c2-c2ccc3ncnn3c2)n1 [Compound 1.19]
pIC50 [1]: 6.00 to 7.00

Cc1cccc(-c2nc(CNc3cccc4c3C(N)CC4)[nH]c2-c2ccc3ncnn3c2)n1 (stereo not drawn) [Compound 1.20]
pIC50 (ALK5; Table 12): 6.00 to 7.00 | pIC50 [1]: 6.00 to 7.00

Cc1cccc(-c2nc(CNc3ccc4c(c3)C(N)CC4)[nH]c2-c2ccc3ncnn3c2)n1 (stereo not drawn) [Compound 1.21]
pIC50 (ALK5; Table 12): 6.00 to 7.00 | pIC50 [1]: 6.00 to 7.00

Cc1cccc(-c2nc(CNC3CCc4ccccc43)[nH]c2-c2ccc3ncnn3c2)n1 (stereo not drawn) [Compound 1.26]
pIC50 [1]: 7.00 to 8.00

Cc1cccc(-c2nc(CNC3Cc4ccccc4C3)[nH]c2-c2ccc3ncnn3c2)n1 [Compound 1.27]
pIC50 [1]: 7.00 to 8.00

Cc1cccc(-c2nc(CN3CCCCC3)[nH]c2-c2ccn3ncnc3c2)n1 [Compound 1.35]
pIC50 [1]: 6.00 to 7.00

Cc1cccc(-c2nc(CNC3CCCNC3)[nH]c2-c2ccn3ncnc3c2)n1 (stereo not drawn) [Compound 1.38]
pIC50 [1]: 5.00 to 6.00

Cc1cccc(-c2nc(CNC3CCNCC3)[nH]c2-c2ccn3ncnc3c2)n1 [Compound 1.39]
pIC50 [1]: 5.00 to 6.00

Cc1cccc(-c2nc(CN3CCc4ccccc4C3)[nH]c2-c2ccn3ncnc3c2)n1 [Compound 1.40]
pIC50 [1]: 6.00 to 7.00

Cc1cccc(-c2nc(CNCc3ccc4c(c3)OCO4)[nH]c2-c2ccc3ncnn3c2)n1 [Compound 1.41]
pIC50 [1]: 6.00 to 7.00

Cc1cccc(-c2nc(CNCC3CCCCC3)[nH]c2-c2ccc3ncnn3c2)n1 [Compound 1.42]
pIC50 [1]: 7.00 to 8.00

Cc1cccc(-c2nc(CN[C@H]3c4ccccc4C[C@H]3O)[nH]c2-c2ccc3ncnn3c2)n1 [Compound 1.43]
pIC50 [1]: 7.00 to 8.00

Cc1cccc(-c2nc(CN[C@@H]3c4ccccc4C[C@@H]3O)[nH]c2-c2ccc3ncnn3c2)n1 [Compound 1.44]
pIC50 [1]: 7.00 to 8.00

Cc1cccc(-c2nc(CN[C@H]3c4ccccc4C[C@@H]3O)[nH]c2-c2ccc3ncnn3c2)n1 [Compound 1.45]
pIC50 [1]: 7.00 to 8.00

Cc1cccc(-c2nc(CN[C@@H]3c4ccccc4C[C@H]3O)[nH]c2-c2ccc3ncnn3c2)n1 [Compound 1.46]
pIC50 [1]: 7.00 to 8.00

Cc1cccc(-c2nc(C3CCCCN3)[nH]c2-c2ccc3ncnn3c2)n1 (stereo not drawn) [Compound 1.49]
pIC50 [1]: 6.00 to 7.00

Cc1cccc(-c2nc(C3CCNC3)[nH]c2-c2ccc3ncnn3c2)n1 (stereo not drawn) [Compound 1.50]
pIC50 [1]: 6.00 to 7.00

Cc1cccc(-c2nc(C3CNC3)[nH]c2-c2ccc3ncnn3c2)n1 [Compound 1.53]
pIC50 [1]: 5.00 to 6.00

Cc1cccc(-c2nc(CN3Cc4ccccc4C3=O)[nH]c2-c2ccc3ncnn3c2)n1 [Compound 1.56]
pIC50 [1]: 7.00 to 8.00

Cc1cccc(-c2nc(CNCc3cccc4ccccc34)[nH]c2-c2ccc3ncnn3c2)n1 [Compound 1.57]
pIC50 [1]: 7.00 to 8.00

Cc1cccc(-c2nc(CNCc3ccc4ccccc4c3)[nH]c2-c2ccc3ncnn3c2)n1 [Compound 1.58]
pIC50 [1]: 6.00 to 7.00

Cc1cccc(-c2nc(CNCCc3cccc4ccccc34)[nH]c2-c2ccc3ncnn3c2)n1 [Compound 1.59]
pIC50 [1]: 7.00 to 8.00

Cc1cccc(-c2nc(CNCCc3ccnc4ccccc34)[nH]c2-c2ccc3ncnn3c2)n1 [Compound 1.60]
pIC50 [1]: 7.00 to 8.00

Cc1cccc(-c2nc(CNCCc3cccc4ncccc34)[nH]c2-c2ccc3ncnn3c2)n1 [Compound 1.61]
pIC50 [1]: 7.00 to 8.00

Cc1cccc(-c2nc(CNCc3ccccc3Oc3ccncc3)[nH]c2-c2ccc3ncnn3c2)n1 [Compound 55]
pIC50 [1]: 5.00 to 6.00

Cc1cccc(-c2nc(CNCc3cccc(Oc4ccccc4)c3)[nH]c2-c2ccc3ncnn3c2)n1 [Compound 56]
pIC50 [1]: 7.00 to 8.00

Cc1cccc(-c2nc(CNCc3cccc(Oc4cccnc4)c3)[nH]c2-c2ccc3ncnn3c2)n1 [Compound 57]
pIC50 [1]: 7.00 to 8.00

Cc1cccc(-c2nc(CNCc3cccc(Oc4ccncc4)c3)[nH]c2-c2ccc3ncnn3c2)n1 [Compound 58]
pIC50 [1]: 7.00 to 8.00

Cc1cccc(-c2nc(CNCc3ccccc3-c3ccccc3)[nH]c2-c2ccc3nccnc3c2)n1 [Compound 72]
pIC50 [1]: 7.00 to 8.00

Cc1cccc(-c2nc(CNCc3ccccc3)[nH]c2-c2ccc3ncccc3n2)n1 [Compound 73]
pIC50 [1]: 6.00 to 7.00

Cc1cccc(-c2nc(CNCc3ccccc3)[nH]c2-c2ccnc3ccccc23)n1 [Compound 74]
pIC50 [1]: 6.00 to 7.00

Cc1cccc(-c2nc(CNCc3ccccc3)[nH]c2-c2ccccn2)n1 [Compound 75]
pIC50 [1]: 6.00 to 7.00

Cc1cccc(-c2nc(CNCc3ccccc3)[nH]c2-c2ccc3c(c2)OCO3)n1 [Compound 76]
pIC50 [1]: 7.00 to 8.00

Cc1cccc(-c2nc(CNCc3ccccc3)[nH]c2-c2ccc3nccnc3c2)n1 [Compound 77]
pIC50 [1]: 8.00 to 10.00

Cc1cccc(-c2nc(CNCCc3c(F)cccc3F)[nH]c2-c2ccc3ncccc3n2)n1 [Compound 78]
pIC50 [1]: 8.00 to 10.00

Cc1cccc(-c2nc(CNCCc3c(F)cccc3F)[nH]c2-c2ccnc3ccccc23)n1 [Compound 79]
pIC50 [1]: 6.00 to 7.00

Cc1cccc(-c2nc(CNCCc3c(F)cccc3F)[nH]c2-c2ccncc2)n1 [Compound 80]
pIC50 [1]: 6.00 to 7.00

Cc1cccc(-c2nc(CNCCc3c(F)cccc3F)[nH]c2-c2ccc3ncccc3c2)n1 [Compound 89]
pIC50 (ALK5; Table 11): 7.30 to 10.00
